Data as given in the supplement of paper PMC7394473.

Experiments:
Details in all cases: 72 h
[1] = tested on: U2OS; assay: GR50 (concentration giving GR = 0.5)
Experimental: (§1)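 U2OS cells treated with full dose titrations of drug; live and dead cells counted by STACK microscopy (mKate2 nuclei, SYTOX Green) at 72 h, biological triplicates. GR and FV dose responses were fitted with 4-parameter logistic models (GR lower bound -1). GRADE (0-100) is the rescaled angle of a linear fit of FV versus GR at doses with GR >= 0, giving the percentage of the response due to cell death.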

[2] = tested on: U2OS; assay: fractional viability (live cells / total cells); higher = less cell death
Experimental: (§2)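 U2OS::Nuc-mKate2 cells seeded in 96-well plates and treated with eight- to ten-point half-log or log dilutions of drug in the presence of 50 nM SYTOX Green. Live (mKate2+) and dead (SYTOX+) cells were counted by IncuCyte STACK live-cell microscopy at 72 h; biological triplicates. GR is the normalised growth-rate inhibition value (Hafner 2016; 1 = untreated growth, <0 = population shrinking). FV is live/(live+dead) cells, not normalised.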

[3] = tested on: U2OS; assay: FV IC50 (concentration giving fractional viability 0.5); higher = less potent killing
Experimental: as §1

[4] = tested on: U2OS; assay: drug GRADE (percent of response due to cell death) (% (0-100)); higher = more death-driven response
Experimental: as §1

[5] = tested on: U2OS; assay: GRmin (fitted minimal GR value at highest effect) (GR value (dimensionless)); higher = less efficacious
Experimental: as §1

[6] = tested on: U2OS; assay: normalized growth rate inhibition value (GR) relative to untreated cells (GR value (dimensionless, 1 = untreated growth)); higher = less growth inhibition
Experimental: as §2

CCc1cnn2c(NCc3ccc[n+]([O-])c3)cc(N3CCCC[C@H]3CCO)nc12 [Dinaciclib] was tested, and the GR50 [1] was 0.00437 µM, the fractional viability ([2]; 0.000100578 µM) was 0.986 and the fractional viability ([2]; 0.000317827 µM) was 0.983. For the same compound, the fractional viability ([2]; 0.00100433 µM) was 0.984, the fractional viability ([2]; 0.00317369 µM) was 0.972 and the fractional viability ([2]; 0.0100289 µM) was 0.41. It also gave a fractional viability ([2]; 0.0316912 µM) of 0.32, a fractional viability ([2]; 0.100144 µM) of 0.339 and a fractional viability ([2]; 0.316456 µM) of 0.35. The fractional viability ([2]; 1 µM) was 0.406, the “FV IC50” value [3] was 8.07 nM and the “drug GRADE” value [4] was 3.29. For the same compound, the GRmin [5] was -0.376, the “normalized growth rate inhibition value” ([6]; 0.000100578 µM) was 0.892 and the “normalized growth rate inhibition value” ([6]; 0.000317827 µM) was 0.802. The “normalized growth rate inhibition value” ([6]; 0.00100433 µM) was 0.876, the “normalized growth rate inhibition value” ([6]; 0.00317369 µM) was 0.756 and the “normalized growth rate inhibition value” ([6]; 0.0100289 µM) was -0.288. For the same compound, the “normalized growth rate inhibition value” ([6]; 0.0316912 µM) was -0.406, the “normalized growth rate inhibition value” ([6]; 0.100144 µM) was -0.368 and the “normalized growth rate inhibition value” ([6]; 0.316456 µM) was -0.358. For the same compound, the “normalized growth rate inhibition value” ([6]; 1 µM) was -0.373.
CC(C)[C@@H]1NC(=O)[C@H](C)OC(=O)[C@@H](C(C)C)NC(=O)[C@@H](C(C)C)OC(=O)[C@H](C(C)C)NC(=O)[C@H](C)OC(=O)[C@@H](C(C)C)NC(=O)[C@@H](C(C)C)OC(=O)[C@H](C(C)C)NC(=O)[C@H](C)OC(=O)[C@@H](C(C)C)NC(=O)[C@@H](C(C)C)OC1=O [Valinomycin] showed a GR50 [1] of 0.0108 µM, a fractional viability ([2]; 0.00100578 µM) of 0.993 and a fractional viability ([2]; 0.00317827 µM) of 0.991. It also gave a fractional viability ([2]; 0.0100433 µM) of 0.874, a fractional viability ([2]; 0.0317369 µM) of 0.933 and a fractional viability ([2]; 0.100289 µM) of 0.685. The fractional viability ([2]; 0.316912 µM) was 0.737, the fractional viability ([2]; 1.00144 µM) was 0.675 and the fractional viability ([2]; 3.16456 µM) was 0.553. For the same compound, the fractional viability ([2]; 10 µM) was 0.384, the “FV IC50” value [3] was 4060 nM and the “drug GRADE” value [4] was 34.4. For the same compound, the GRmin [5] was -0.0918, the “normalized growth rate inhibition value” ([6]; 0.00100578 µM) was 1.02 and the “normalized growth rate inhibition value” ([6]; 0.00317827 µM) was 0.986. The “normalized growth rate inhibition value” ([6]; 0.0100433 µM) was 0.171, the “normalized growth rate inhibition value” ([6]; 0.0317369 µM) was 0.472 and the “normalized growth rate inhibition value” ([6]; 0.100289 µM) was -0.0547. The “normalized growth rate inhibition value” ([6]; 0.316912 µM) was 0.0438, the “normalized growth rate inhibition value” ([6]; 1.00144 µM) was -0.0358 and the “normalized growth rate inhibition value” ([6]; 3.16456 µM) was -0.0823. For the same compound, the “normalized growth rate inhibition value” ([6]; 10 µM) was -0.225.
In the case of COC(=O)c1ccc2c(c1)NC(=O)/C2=C(\Nc1ccc(N(C)C(=O)CN2CCN(C)CC2)cc1)c1ccccc1 [Bibf-1120], the GR50 [1] is reported as 0.845 µM, the fractional viability ([2]; 0.01 µM) is reported as 0.981 and the fractional viability ([2]; 0.0316 µM) is reported as 0.975. The fractional viability ([2]; 0.1 µM) was 0.974, the fractional viability ([2]; 0.316 µM) was 0.947 and the fractional viability ([2]; 1 µM) was 0.758. The fractional viability ([2]; 3.16 µM) was 0.092, the fractional viability ([2]; 10 µM) was 0.00465 and the fractional viability ([2]; 31.6 µM) was 0.00201. For the same compound, the “FV IC50” value [3] was 1480 nM, the “drug GRADE” value [4] was 50.6 and the GRmin [5] was -0.805. For the same compound, the “normalized growth rate inhibition value” ([6]; 0.01 µM) was 1.08, the “normalized growth rate inhibition value” ([6]; 0.0316 µM) was 1.04 and the “normalized growth rate inhibition value” ([6]; 0.1 µM) was 0.935. For the same compound, the “normalized growth rate inhibition value” ([6]; 0.316 µM) was 0.813, the “normalized growth rate inhibition value” ([6]; 1 µM) was 0.427 and the “normalized growth rate inhibition value” ([6]; 3.16 µM) was -0.468. The “normalized growth rate inhibition value” ([6]; 10 µM) was -0.767 and the “normalized growth rate inhibition value” ([6]; 31.6 µM) was -0.767.
COC(=O)Nc1nc2cc(C(=O)c3ccc(F)cc3)ccc2[nH]1 [Flubendazole] gave a GR50 [1] of 0.566 µM, a fractional viability ([2]; 0.01 µM) of 0.981 and a fractional viability ([2]; 0.0316 µM) of 0.978. For the same compound, the fractional viability ([2]; 0.1 µM) was 0.971, the fractional viability ([2]; 0.316 µM) was 0.95 and the fractional viability ([2]; 1 µM) was 0.766. The fractional viability ([2]; 3.16 µM) was 0.595, the fractional viability ([2]; 10 µM) was 0.516 and the fractional viability ([2]; 31.6 µM) was 0.468. The “FV IC50” value [3] was 10700 nM, the “drug GRADE” value [4] was 61.2 and the GRmin [5] was -0.0291. For the same compound, the “normalized growth rate inhibition value” ([6]; 0.01 µM) was 0.993, the “normalized growth rate inhibition value” ([6]; 0.0316 µM) was 1 and the “normalized growth rate inhibition value” ([6]; 0.1 µM) was 0.892. The “normalized growth rate inhibition value” ([6]; 0.316 µM) was 0.706, the “normalized growth rate inhibition value” ([6]; 1 µM) was 0.286 and the “normalized growth rate inhibition value” ([6]; 3.16 µM) was 0.11. The “normalized growth rate inhibition value” ([6]; 10 µM) was -0.01 and the “normalized growth rate inhibition value” ([6]; 31.6 µM) was -0.0371.
Cc1[nH]c2ccccc2c1CCNCc1ccc(/C=C/C(=O)NO)cc1 [Panobinostat] showed a GR50 [1] of 0.383 µM, a fractional viability ([2]; 0.01 µM) of 0.983 and a fractional viability ([2]; 0.0316 µM) of 0.984. The fractional viability ([2]; 0.1 µM) was 0.979, the fractional viability ([2]; 0.316 µM) was 0.933 and the fractional viability ([2]; 1 µM) was 0.685. It also gave a fractional viability ([2]; 3.16 µM) of 0.271, a fractional viability ([2]; 10 µM) of 0.0583 and a fractional viability ([2]; 31.6 µM) of 0.00906. For the same compound, the “FV IC50” value [3] was 1670 nM, the “drug GRADE” value [4] was 55.3 and the GRmin [5] was -0.832. For the same compound, the “normalized growth rate inhibition value” ([6]; 0.01 µM) was 1.04, the “normalized growth rate inhibition value” ([6]; 0.0316 µM) was 1.05 and the “normalized growth rate inhibition value” ([6]; 0.1 µM) was 0.794. For the same compound, the “normalized growth rate inhibition value” ([6]; 0.316 µM) was 0.61, the “normalized growth rate inhibition value” ([6]; 1 µM) was 0.00935 and the “normalized growth rate inhibition value” ([6]; 3.16 µM) was -0.45. For the same compound, the “normalized growth rate inhibition value” ([6]; 10 µM) was -0.679 and the “normalized growth rate inhibition value” ([6]; 31.6 µM) was -0.831.
In the case of CC(C)C[C@@H](C=O)NC(=O)[C@H](CC(C)C)NC(=O)[C@H](CC(C)C)NC(=O)OCc1ccccc1 [MG-132], the GR50 [1] is reported as 1.03 µM, the fractional viability ([2]; 0.01 µM) is reported as 0.973 and the fractional viability ([2]; 0.0316 µM) is reported as 0.977. The fractional viability ([2]; 0.1 µM) was 0.979, the fractional viability ([2]; 0.316 µM) was 0.974 and the fractional viability ([2]; 1 µM) was 0.929. For the same compound, the fractional viability ([2]; 3.16 µM) was 0.226, the fractional viability ([2]; 10 µM) was 0.00177 and the fractional viability ([2]; 31.6 µM) was 0. The “FV IC50” value [3] was 2240 nM, the “drug GRADE” value [4] was 13.5 and the GRmin [5] was -0.949. The “normalized growth rate inhibition value” ([6]; 0.01 µM) was 1.02, the “normalized growth rate inhibition value” ([6]; 0.0316 µM) was 1.01 and the “normalized growth rate inhibition value” ([6]; 0.1 µM) was 0.929. The “normalized growth rate inhibition value” ([6]; 0.316 µM) was 0.9, the “normalized growth rate inhibition value” ([6]; 1 µM) was 0.524 and the “normalized growth rate inhibition value” ([6]; 3.16 µM) was -0.442. For the same compound, the “normalized growth rate inhibition value” ([6]; 10 µM) was -0.885 and the “normalized growth rate inhibition value” ([6]; 31.6 µM) was -0.93.
Work on CC[C@@]1(O)C(=O)OCc2c1cc1n(c2=O)Cc2cc3c(CN(C)C)c(O)ccc3nc2-1 [Topotecan] yielded a GR50 [1] of 0.0151 µM, a fractional viability ([2]; 0.00100578 µM) of 0.985 and a fractional viability ([2]; 0.00317827 µM) of 0.985. It also gave a fractional viability ([2]; 0.0100433 µM) of 0.978, a fractional viability ([2]; 0.0317369 µM) of 0.94 and a fractional viability ([2]; 0.100289 µM) of 0.963. The fractional viability ([2]; 0.316912 µM) was 0.923, the fractional viability ([2]; 1.00144 µM) was 0.846 and the fractional viability ([2]; 3.16456 µM) was 0.675. The fractional viability ([2]; 10 µM) was 0.444, the “FV IC50” value [3] was 7660 nM and the “drug GRADE” value [4] was 9.92. For the same compound, the GRmin [5] was -0.0768, the “normalized growth rate inhibition value” ([6]; 0.00100578 µM) was 1.09 and the “normalized growth rate inhibition value” ([6]; 0.00317827 µM) was 0.979. The “normalized growth rate inhibition value” ([6]; 0.0100433 µM) was 0.698, the “normalized growth rate inhibition value” ([6]; 0.0317369 µM) was 0.105 and the “normalized growth rate inhibition value” ([6]; 0.100289 µM) was 0.14. The “normalized growth rate inhibition value” ([6]; 0.316912 µM) was 0.0543, the “normalized growth rate inhibition value” ([6]; 1.00144 µM) was -0.044 and the “normalized growth rate inhibition value” ([6]; 3.16456 µM) was -0.147. The “normalized growth rate inhibition value” ([6]; 10 µM) was -0.295.
